In patent US6528275B1, “Substrates and inhibitors of proteolytic enzymes” (Peptide Therapeutics Limited, priority 1996, dated 2003):
Non-standard residues stand in square brackets, D forms with d. Residues, ends and D or L forms follow the SMILES beside them. *: point of attachment. Tyr(3-NO2) = N[C@@H](Cc1ccc(O)c([N+](=O)[O-])c1)C(=O)O; Hyp = O=C(O)[C@@H]1C[C@@H](O)CN1; 3Pal = N[C@@H](Cc1cccnc1)C(=O)O; Tic = O=C(O)[C@@H]1Cc2ccccc2CN1; Cha = N[C@@H](CC1CCCCC1)C(=O)O; hLeu = CC(C)CC[C@H](N)C(=O)O; Ac6c = NC1(C(=O)O)CCCCC1; Nle = CCCC[C@H](N)C(=O)O; 2Abz = Nc1ccccc1C(=O)O; Piv = CC(C)(C)C(=O)*; Bz = O=C(c1ccccc1)*; Ahx = NCCCCCC(=O)O

Each compound was assayed against T1, Der pI (Dermatophagoides pteronyssinus, UniProt P08176) (assay: Der pI substrate assay with FRET peptides (fluorescence, Km, kcat/Km)). Settings: purified Der pI; peptides SEQ ID Nos. 1-76.
T1 construct: tissue SmithKline-Beecham, U.K (crude mite extract); host or cells: crude house dust mite extract
T1 sequence (P08176 99-320): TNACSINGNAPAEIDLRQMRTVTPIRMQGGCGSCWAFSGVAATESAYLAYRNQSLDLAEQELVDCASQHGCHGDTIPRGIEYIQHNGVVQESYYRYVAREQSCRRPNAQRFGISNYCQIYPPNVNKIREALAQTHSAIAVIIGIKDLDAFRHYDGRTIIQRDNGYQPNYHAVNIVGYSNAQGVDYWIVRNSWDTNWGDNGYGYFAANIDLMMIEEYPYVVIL
Format: biochemical, house dust mite
Design: key: NS indicates that the peptide was not hydrolysed by Der pI.; NM indicated that the peptide was a substrate for Der pI, but the Km was not measured.; NM^a indicates that the peptide was a substrate for Der pI, and its cleavage was followed by HPLC-MS showing hydrolysis to occur between-Nle-Ser-
Description: Using the general techniques described above, the following compounds were prepared and assayed as potential substrates against Der pI purified as described above.
Each mixture of 20 compounds in the libraries of the apparatus described herein was screened at a concentration of 1.0 μM per compound in an assay against the cysteinyl protease Der pI.
Plate assays were carried out in 96 well plate format, using 0.1 ug of Der pI per 100 μL assay volume in each well and using 20 μM of the substrate. All assays were performed in Assay Buffer (AB; 50 mM potassium phosphate, pH 8.25 containing 1 mM ethylenediaminetetraacetic acid (EDTA) and 1 mM dithiothreitol (DTT). The Der pI enzyme is pre-activated by addition of DTT and this in incubated at room temperature for 5 min. prior to initiation of the assay. As an example for the screening methodology, each well contains a 5 μL of a 20 μM solution of the test compound in DMSO, 10 μL of a 200 μM aqueous solution of the substrate, 2, and 85 μL of Der pI in AB is added to initiate the reaction. Enzyme activity is monitored by fluorescence using 320 nm for excitation and 420 nm for the emission wavelengths using a Labsystems Fluroskan Ascent machine. Kinetic measurements were carried out using a Hitachi F-4500 Fluorescence Spectrophotometer.

SMILES | substrate or not substrate for Der pI (symbols in Measured Km)
CC(C)CC[C@H](NC(=O)[C@@H](CCCCN)NC(=O)[C@@H](NC(=O)c1ccccc1N)C(C)C)C(=O)N[C@@H](CO)C(=O)N[C@@H](Cc1ccc(O)c([N+](=O)[O-])c1)C(=O)N[C@@H](CC(=O)O)C(N)=O [Abz-Val-DLys-hLeu-Ser-Tyr(NO2)-Asp-NH2] (H-[2Abz]V[dK][hLeu]S[Tyr(3-NO2)]D-NH2) | NS
CCCC[C@H](NC(=O)[C@H](C)NC(=O)[C@@H](NC(=O)c1ccccc1N)C(C)C)C(=O)N[C@@H](CO)C(=O)NCCCCCC(=O)N[C@@H](CC(=O)O)C(N)=O [Abz-Val-Ala-Nle-Ser-eAHA-Asp-NH2] (H-[2Abz]VA[Nle]S[Ahx]D-NH2) | NM
CC(C)CC[C@H](NC(=O)C1(NC(=O)[C@@H](NC(=O)c2ccccc2N)C(C)C)CCCCC1)C(=O)N[C@@H](CO)C(=O)N[C@@H](Cc1ccc(O)c([N+](=O)[O-])c1)C(=O)N[C@@H](CC(=O)O)C(N)=O [Abz-Val-ACH-hLeu-Ser-Tyr(NO2)-Asp-NH2] (H-[2Abz]V[Ac6c][hLeu]S[Tyr(3-NO2)]D-NH2) | NS
CCCC[C@H](NC(=O)[C@H](C)NC(=O)[C@@H](NC(=O)C(C)(C)C)C(C)C)C(=O)N[C@@H](CO)C(=O)N[C@@H](Cc1ccc(O)c([N+](=O)[O-])c1)C(N)=O [Piv-Val-Ala-Nle-Ser-Tyr(NO2)-NH2] (Piv-VA[Nle]S[Tyr(3-NO2)]-NH2) | NM^a
CCCC[C@H](NC(=O)[C@H](C)NC(=O)[C@@H](N)C(C)C)C(=O)N[C@@H](CO)C(=O)N[C@@H](Cc1ccc(O)c([N+](=O)[O-])c1)C(=O)N[C@@H](CC(=O)O)C(N)=O [H-Val-Ala-Nle-Ser-TyrNO2-Asp-NH2] (H-VA[Nle]S[Tyr(3-NO2)]D-NH2) | NS
CCCC[C@H](NC(=O)[C@H](C)NC(=O)[C@@H](NC(=O)c1ccccc1N)C(C)C)C(=O)N[C@@H](CO)C(=O)N[C@@H](Cc1ccccc1)C(=O)N[C@@H](CC(=O)O)C(N)=O [Abz-Val-Ala-Nle-Ser-Phe-Asp-NH2] (H-[2Abz]VA[Nle]SFD-NH2) | NM
CCCC[C@H](NC(=O)[C@H](C)NC(=O)[C@@H](NC(=O)c1ccccc1)C(C)C)C(=O)N[C@@H](CO)C(=O)N[C@@H](Cc1ccc(O)c([N+](=O)[O-])c1)C(N)=O [Bz-Val-Ala-Nle-Ser-Tyr(NO2)-NH2] (Bz-VA[Nle]S[Tyr(3-NO2)]-NH2) | NM^a
CCCC[C@H](NC(=O)[C@H](C)NC(=O)[C@@H](NC(=O)c1ccccc1N)C(C)C)C(=O)N[C@@H](CO)C(=O)N[C@@H](C)C(=O)N[C@@H](CC(=O)O)C(N)=O [Abz-Val-Ala-Nle-Ser-Ala-Asp-NH2] (H-[2Abz]VA[Nle]SAD-NH2) | NM
CC(C)CC[C@H](NC(=O)[C@@H](C)NC(=O)[C@@H](NC(=O)c1ccccc1N)C(C)C)C(=O)N[C@@H](CO)C(=O)N[C@@H](Cc1ccc(O)c([N+](=O)[O-])c1)C(=O)N[C@@H](CC(=O)O)C(N)=O [Abz-Val-DAla-hLeu-Ser-Tyr(NO2)-Asp-NH2] (H-[2Abz]V[dA][hLeu]S[Tyr(3-NO2)]D-NH2) | NS
CCCC[C@H](NC(=O)[C@H](C)NC(=O)[C@@H](NC(=O)c1ccccc1N)C(C)C)C(=O)N[C@@H](CO)C(N)=O [Abz-Val-Ala-Nle-Ser-NH2] (H-[2Abz]VA[Nle]S-NH2) | NM
CCCC[C@H](NC(=O)[C@H](C)NC(=O)[C@@H](NC(=O)[C@@H]1C[C@@H](O)CN1C(=O)c1ccccc1N)C(C)C)C(=O)N[C@@H](CO)C(=O)N[C@@H](Cc1ccc(O)c([N+](=O)[O-])c1)C(=O)N[C@@H](CC(=O)O)C(N)=O [Abz-Hyp-Val-Ala-Nle-Ser-Tyr(NO2)-Asp-NH2] (H-[2Abz][Hyp]VA[Nle]S[Tyr(3-NO2)]D-NH2) | NS
CC(C)[C@H](NC(=O)c1ccccc1N)C(=O)N[C@@H](C)C(=O)N1C[C@H](O)C[C@H]1C(=O)N[C@@H](CO)C(=O)N[C@@H](Cc1ccc(O)c([N+](=O)[O-])c1)C(=O)N[C@@H](CC(=O)O)C(N)=O [Abz-Val-Ala-Hyp-Ser-Tyr(NO2)-Asp-NH2] (H-[2Abz]VA[Hyp]S[Tyr(3-NO2)]D-NH2) | NS
CCCC[C@H](NC(=O)[C@H](C)NC(=O)[C@@H](NC(=O)c1ccccc1N)C(C)C)C(=O)N[C@@H](CO)C(=O)N[C@@H](Cc1ccc(O)cc1)C(=O)N[C@@H](CC(=O)O)C(N)=O [Abz-Val-Ala-Nle-Ser-Tyr-Asp-NH2] (H-[2Abz]VA[Nle]SYD-NH2) | NM
CC(C)CC[C@H](NC(=O)[C@H](C)NC(=O)[C@H](NC(=O)c1ccccc1N)C(C)C)C(=O)N[C@@H](CO)C(=O)N[C@@H](Cc1ccc(O)c([N+](=O)[O-])c1)C(=O)N[C@@H](CC(=O)O)C(N)=O [Abz-DVal-Ala-hLeu-Ser-Tyr(NO2)-Asp-NH2] (H-[2Abz][dV]A[hLeu]S[Tyr(3-NO2)]D-NH2) | NS
CC(C)CC[C@H](NC(=O)[C@H](C)NC(=O)[C@@H]1Cc2ccccc2CN1C(=O)c1ccccc1N)C(=O)N[C@@H](CO)C(=O)N[C@@H](Cc1ccc(O)c([N+](=O)[O-])c1)C(=O)N[C@@H](CC(=O)O)C(N)=O [Abz-Tic-Ala-hLeu-Ser-Tyr(NO2)-Asp-NH2] (H-[2Abz][Tic]A[hLeu]S[Tyr(3-NO2)]D-NH2) | NS
CC(C)CC[C@H](NC(=O)[C@@H](CCC(N)=O)NC(=O)[C@@H](NC(=O)c1ccccc1N)C(C)C)C(=O)N[C@@H](CO)C(=O)N[C@@H](Cc1ccc(O)c([N+](=O)[O-])c1)C(=O)N[C@@H](CC(=O)O)C(N)=O [Abz-Va1-DGln-hLeu-Ser-Tyr(NO2)-Asp-NH2] (H-[2Abz]V[dQ][hLeu]S[Tyr(3-NO2)]D-NH2) | NS
CCCC[C@H](NC(=O)[C@H](C)NC(=O)[C@@H](NC(C)=O)C(C)C)C(=O)N[C@@H](CO)C(=O)N[C@@H](Cc1ccc(O)c([N+](=O)[O-])c1)C(=O)N[C@@H](CC(=O)O)C(N)=O [Ac-Val-Ala-Nle-Ser-Tyr(NO2)-Asp-NH2] (Ac-VA[Nle]S[Tyr(3-NO2)]D-NH2) | NS
CCCC[C@H](NC(=O)[C@H](C)NC(=O)[C@@H](NC(=O)[C@H](Cc1ccccc1)NC(=O)c1ccccc1N)C(C)C)C(=O)N[C@@H](CO)C(=O)N[C@@H](Cc1ccc(O)c([N+](=O)[O-])c1)C(=O)N[C@@H](CC(=O)O)C(N)=O [Abz-Phe-Val-Ala-Nle-Ser-Tyr(NO2)-Asp-NH2] (H-[2Abz]FVA[Nle]S[Tyr(3-NO2)]D-NH2) | NM
CCCC[C@H](NC(=O)[C@H](C)NC(=O)[C@@H](NC(=O)c1ccccc1N)C(C)C)C(=O)N[C@@H](CO)C(=O)N[C@@H](Cc1ccc(O)c([N+](=O)[O-])c1)C(N)=O [Abz-Val-Ala-Nle-Ser-Tyr(NO2)-NH2] (H-[2Abz]VA[Nle]S[Tyr(3-NO2)]-NH2) | NM
CC(C)CC[C@H](NC(=O)[C@H](Cc1cccnc1)NC(=O)[C@@H](NC(=O)c1ccccc1N)C(C)C)C(=O)N[C@@H](CO)C(=O)N[C@@H](Cc1ccc(O)c([N+](=O)[O-])c1)C(=O)N[C@@H](CC(=O)O)C(N)=O [Abz-Val-3pyr-hLeu-Ser-Tyr(NO2)-Asp-NH2] (H-[2Abz]V[3Pal][hLeu]S[Tyr(3-NO2)]D-NH2) | NS
CC(C)CC[C@H](NC(=O)[C@H](CC1CCCCC1)NC(=O)[C@@H](NC(=O)c1ccccc1N)C(C)C)C(=O)N[C@@H](CO)C(=O)N[C@@H](Cc1ccc(O)c([N+](=O)[O-])c1)C(=O)N[C@@H](CC(=O)O)C(N)=O [Abz-Val-Cha-hLeu-Ser-Tyr(NO2)-Asp-NH2] (H-[2Abz]V[Cha][hLeu]S[Tyr(3-NO2)]D-NH2) | NS
CC(C)[C@H](NC(=O)c1ccccc1N)C(=O)N[C@@H](C)C(=O)NC1(C(=O)N[C@@H](CO)C(=O)N[C@@H](Cc2ccc(O)c([N+](=O)[O-])c2)C(=O)N[C@@H](CC(=O)O)C(N)=O)CCCCC1 [Abz-Val-Ala-ACH-Ser-Tyr(NO2)-Asp-NH2] (H-[2Abz]VA[Ac6c]S[Tyr(3-NO2)]D-NH2) | NS
CCCC[C@H](NC(=O)[C@H](C)NC(=O)[C@@H](N)C(C)C)C(=O)N[C@@H](CO)C(=O)N[C@@H](Cc1ccc(O)c([N+](=O)[O-])c1)C(N)=O [H-Val-Ala-Nle-Ser-Tyr(NO2)-NH2] (H-VA[Nle]S[Tyr(3-NO2)]-NH2) | NS
